Experimental findings from US8513462B2, “Pesticides and uses thereof” (Dow AgroSciences LLC, priority 2007, dated 2013) are described below.

For orientation: melting point means the temperature of the solid-liquid transition.

For the first data set, the system named is green peach aphid (Myzus persicae). Put plainly: Insecticidal test for green peach aphid in foliar spray assay. The data set is classed as in vivo. The conditions noted are these: 72 h, foliar spray on cabbage, Corrected % Control (Abbott) after three days, read-out: Rating against green peach aphid on cabbage (foliar spray). The method, then:
Squash seedlings with fully expanded cotyledon leaves were trimmed to one cotyledon per plant and infested with cotton aphid (wingless adults and nymphs) 1 day prior to chemical application. Each plant was examined before chemical application to ensure uniform infestation (ca. 30-70 aphids per plant). Compounds (2 mg) were dissolved in 2 ml of acetone:methanol (1:1) solvent, forming stock solutions of 1000 ppm. The stock solutions were diluted 5× with 0.025% Tween 20 in H2O to obtain a solution at 200 ppm. A hand-held Devilbiss aspirator type sprayer was used to apply the spray solutions until runoff to both sides of the squash cotyledon leaves. Four plants (4 replications) were used for each compound. Reference plants (solvent check) were sprayed with the diluent only. Treated plants were held in a holding room for 3 days at approximately 23° C. and 40% RH before the number of live aphids on each plant was recorded. Insecticidal activity was measured by Corrected % Control using Abbott's correction formula and presented in Table 1-Activity: Corrected % Control=100*(X−Y)/X • where X=No. of live aphids on solvent check plants • Y=No. of live aphids on treated plants Results are shown in Table 7. Insecticidal Test for Green Peach Aphid (Myzus persicae) in Foliar Spray Assay Cabbage seedlings grown in 3-inch pots, with 2-3 small (3-5 cm) true leaves, were used as test substrate. The seedlings were infested with 20-50 green peach aphids (wingless adult and nymph) 1-2 days prior to chemical application. Four seedlings were used for each treatment. Compounds (2 mg) were dissolved in 2 ml of acetone:methanol (1:1) solvent, forming stock solutions of 1000 ppm. The stock solutions were diluted 5× with 0.025% Tween 20 in H2O to obtain a solution at 200 ppm. A hand-held Devilbiss aspirator sprayer was used for spraying a solution to both sides of cabbage leaves until runoff. Reference plants (solvent check) were sprayed with the diluent only. Treated plants were held in a holding room for three days at approximately 23° C. and 40% RH prior to grading. Evaluation was conducted by counting the number of live aphids per plant under a microscope. Insecticidal activity was measured by using Abbott's correction formula: Corrected % Control=100*(X−Y)/X • where X=No. of live aphids on solvent check plants • Y=No. of live aphids on treated plants
Regarding `CC(c1ccc(C(F)(F)F)nc1)S(C)(=O)=Nc1nc(-c2ccc(Cl)cc2)cs1` (centres unmarked) [Compound 22], the pest or weed control at 200 ppm is 80 to 100%.
On the same count and under the same terms, the value for `CC(c1ccc(C(F)(F)F)nc1)S(C)(=O)=Nc1nc(-c2ccc3c(c2)OCO3)cs1` (centres unmarked) [Compound 47] was 80 to 100%; that for `CC(c1ccc(C(F)(F)F)nc1)S(C)(=O)=Nc1nc(-c2ccc(C(F)(F)F)cc2)cs1` (centres unmarked) [Compound 45] was 80 to 100%; that for `CCOC(=O)c1csc(N=S(C)(=O)C(C)c2ccc(C(F)(F)F)nc2)n1` (centres unmarked) [Compound 18] was 80 to 100%.
With `CCc1csc(N=S(C)(=O)C(C)c2ccc(C(F)(F)F)nc2)n1` (centres unmarked) [Compound 28], the pest or weed control at 200 ppm lay in the range of 80 to 100%.
As to `Cc1sc(N=S(C)(=O)C(C)c2ccc(C(F)(F)F)nc2)nc1-c1ccccc1` (centres unmarked) [Compound 66, 5-{1-[methyl(5-methyl-4-phenyl-1,3-thiazol-2-yl)sulfonimidoyl]ethyl}-2-(trifluoromethyl)pyridine], the pest or weed control at 200 ppm fell in the range of 80 to 100%.
The same measure, in the same setting: the value for `Cc1csc(N=S(C)(=O)C(C)c2ccc(C(F)(F)F)nc2)n1` (centres unmarked) [Compound 14] was less than 80%; that for `O=S1(=Nc2nc(C(F)(F)F)cs2)CCCC1c1ccc(Cl)nc1` (centres unmarked) [Compound 79] was 80 to 100%.
Same read-out and setting: under `CC(c1ccc(C(F)(F)F)nc1)S(C)(=O)=Nc1nnc(C(F)F)s1` (racemic) [Compound 69, 5-{1-[[5-(difluoromethyl)-1,3,4-thiadiazol-2-yl](methyl)sulfonimidoyl]ethyl}-2-(trifluoromethyl)pyridine] stands 80 to 100%.
`CC(c1ccc(C(F)(F)F)nc1)S(C)(=O)=Nc1nc(-c2ccccc2)co1` (centres unmarked) [Compound 74]: the pest or weed control at 200 ppm is less than 80%.
As for `CC(c1ccc(C(F)(F)F)nc1)S(C)(=O)=Nc1nc(-c2csc3ccccc23)cs1` (centres unmarked) [Compound 40], the pest or weed control at 200 ppm lay within 80 to 100%.
As to `CC(c1ccc(C(F)(F)F)nc1)S(C)(=O)=Nc1nc2c(s1)CCc1nonc1-2` (racemic) [Compound 65, 7-[(methyl(oxo){1-[6-(trifluoromethyl)-3-pyridinyl]ethyl}-λ^6-sulfanylidene)amino]-4,5-dihydro[1,3]thiazolo[4,5-e][2,1,3]-benzoxadiazole], the pest or weed control at 200 ppm fell in the range of 80 to 100%.
Turning to `CC(c1ccc(C(F)(F)F)nc1)S(C)(=O)=Nc1ncc(C#N)s1` (centres unmarked) [Compound 16], the pest or weed control at 200 ppm lay within 80 to 100%.
On the same count and under the same terms, under `CCc1coc(N=S(C)(=O)C(C)c2ccc(C(F)(F)F)nc2)n1` (centres unmarked) [Compound 70, 5-{1-[methyl(4-ethyl-1,3-oxazol-2-yl)sulfonimidoyl]ethyl}-2-(trifluoromethyl)pyridine] stands 80 to 100%; under `CC(c1ccc(C(F)(F)F)nc1)S(C)(=O)=Nc1ncc(Cc2ccccc2)s1` (racemic) [Compound 61, 5-{1-[(5-benzyl-1,3-thiazol-2-yl)(methyl)sulfonimidoyl]ethyl}-2-(trifluoromethyl)pyridine], 80 to 100%.
Turning to `COc1ccc(-c2csc(N=S(C)(=O)C(C)c3ccc(C(F)(F)F)nc3)n2)cc1` (centres unmarked) [Compound 23], the pest or weed control at 200 ppm fell in the range of 80 to 100%.
As for `Cc1ccsc1-c1nc(N=S(C)(=O)C(C)c2ccc(C(F)(F)F)nc2)sc1C` (centres unmarked) [Compound 36], the pest or weed control at 200 ppm was in the range of 80 to 100%.
In the case of `CC(c1ccc(C(F)(F)F)nc1)S(C)(=O)=Nc1nc(-c2ccc([N+](=O)[O-])cc2)cs1` (centres unmarked) [Compound 49], the pest or weed control at 200 ppm was in the range of 80 to 100%.
On to `CC(c1ccc(C(F)(F)F)nc1)S(C)(=O)=Nc1nc(-c2cccc(Cl)c2)cs1` (centres unmarked) [Compound 21], for which the pest or weed control at 200 ppm lay in the range of 80 to 100%.
Consider `CC(c1ccc(C(F)(F)F)nc1)S(C)(=O)=Nc1ncccc1F` (centres unmarked) [Compound 9], for which the pest or weed control at 200 ppm was in the range of 80 to 100%.
Consider `COc1ccc(-c2csc(N=S(C)(=O)C(C)c3ccc(C(F)(F)F)nc3)n2)c(OC)c1` (centres unmarked) [Compound 53], for which the pest or weed control at 200 ppm fell in the range of 80 to 100%.
Same read-out and setting: under `Cc1coc(N=S(C)(=O)C(C)c2ccc(C(F)(F)F)nc2)n1` (centres unmarked) [Compound 71] stands 80 to 100%; under `CC(c1ccc(C(F)(F)F)nc1)S(C)(=O)=Nc1nc(C(F)(F)F)cs1` (centres unmarked) [Compound 26, 3-[1-ethyl(N-(2-(4-trifluoromethyl)thiazole)-sulfoximinyl)(methyl)]-6-trifluoromethylpyridine], 80 to 100%.
As for `Cc1sc(N=S(C)(=O)C(C)c2ccc(C(F)(F)F)nc2)nc1-c1ccc(Br)cc1` (centres unmarked) [Compound 68, 5-{1-[[4-(4-bromophenyl)-5-methyl-1,3-thiazol-2-yl](methyl)sulfonimidoyl]ethyl}-2-(trifluoromethyl)pyridine], the pest or weed control at 200 ppm lay in the range of 80 to 100%.
Take `CC(c1ccc(C(F)(F)F)nc1)S(C)(=O)=Nc1nc(-c2ccncc2)cs1` (centres unmarked) [Compound 34]: the pest or weed control at 200 ppm is 80 to 100%.
As for `CC(c1ccc(C(F)(F)F)nc1)S(C)(=O)=Nc1ccsc1[N+](=O)[O-]` (centres unmarked) [Compound 17], the pest or weed control at 200 ppm was less than 80%.
On the same count and under the same terms, the value for `CC(c1ccc(C(F)(F)F)nc1)S(C)(=O)=Nc1cc(F)ccn1` (centres unmarked) [Compound 3, 3-[1-ethyl(N-(2-(4-fluoro)pyridine)-sulfoximinyl)(methyl)]-6-trifluoromethylpyridine] was 80 to 100%.
The same measure, in the same setting: the value for `Cc1nc(N=S(C)(=O)C(C)c2ccc(C(F)(F)F)nc2)sc1C` (centres unmarked) [Compound 67, 5-{1-[(4,5-dimethyl-1,3-thiazol-2-yl)(methyl)sulfonimidoyl]ethyl}-2-(trifluoromethyl)pyridine] was 80 to 100%.
As to `COc1ccc(-c2csc(N=S(C)(=O)Cc3ccc(Cl)nc3)n2)cc1` (centres unmarked) [Compound 57, 5-{[methyl[4-(4-methoxyphenyl)-1,3-thiazol-2-yl]sulfonimidoyl]methyl}-2-chloropyridine], the pest or weed control at 200 ppm was less than 80%.
Still for that read-out and setting: under `Cc1oc(N=S(C)(=O)C(C)c2ccc(C(F)(F)F)nc2)nc1-c1ccc(Br)cc1` (centres unmarked) [Compound 73] stands 80 to 100%.
As to `CC(c1ccc(C(F)(F)F)nc1)S(C)(=O)=Nc1ncc(-c2ccccc2)s1` (centres unmarked) [Compound 62, 5-{1-[methyl(5-phenyl-1,3-thiazol-2-yl)sulfonimidoyl]ethyl}-2-(trifluoromethyl)pyridine], the pest or weed control at 200 ppm was in the range of 80 to 100%.
Turning to `CC(c1ccc(C(F)(F)F)nc1)S(C)(=O)=Nc1cccc(F)n1` (centres unmarked) [Compound 10], the pest or weed control at 200 ppm was less than 80%.
For `CC(c1ccc(C(F)(F)F)nc1)S(C)(=O)=Nc1cccc(C(F)(F)F)n1` (centres unmarked) [Compound 11], the pest or weed control at 200 ppm is less than 80%.
Take `Cc1ccc(-c2csc(N=S(C)(=O)C(C)c3ccc(C(F)(F)F)nc3)n2)cc1` (centres unmarked) [Compound 19, 5-{1-[methyl(4-(4-methylphenyl)-1,3-thiazol-2-yl)sulfonimidoyl]ethyl}-2-(trifluoromethyl)pyridine]: the pest or weed control at 200 ppm is 80 to 100%.
Turning to `Cc1cc(-c2csc(N=S(C)(=O)C(C)c3ccc(C(F)(F)F)nc3)n2)ccc1Cl` (centres unmarked) [Compound 50], the pest or weed control at 200 ppm was in the range of 80 to 100%.
On the same count and under the same terms, the value for `CSCc1cnc(N=S(C)(=O)C(C)c2ccc(C(F)(F)F)nc2)s1` (centres unmarked) [Compound 64, 5-[1-(methyl{5-[(methylsulfanyl)methyl]-1,3-thiazol-2-yl}sulfonimidoyl)ethyl]-2-(trifluoromethyl)pyridine] was 80 to 100%; that for `CCCCC(c1ccc(C(F)(F)F)nc1)S(C)(=O)=Nc1nc(-c2ccc(OC)cc2)cs1` (centres unmarked) [Compound 60, 5-{1-[methyl(4-(4-methoxyphenyl)-1,3-thiazol-2-yl)sulfonimidoyl]pentyl}-2-(trifluoromethyl)pyridine] was less than 80%.
`Cc1nc(N=S(C)(=O)C(C)c2ccc(C(F)(F)F)nc2)oc1C` (centres unmarked) [Compound 72]: the pest or weed control at 200 ppm was less than 80%.
As to `CC(c1ccc(C(F)(F)F)nc1)S(C)(=O)=Nc1nc(-c2cc(-c3ccc(Cl)cc3)no2)cs1` (centres unmarked) [Compound 42], the pest or weed control at 200 ppm lay within 80 to 100%.
With `CC(c1ccc(C(F)(F)F)nc1)S(C)(=O)=Nc1nc2ccccc2s1` (centres unmarked) [Compound 25, 3-[1-ethyl(N-(2-benzothiazole)-sulfoximinyl)(methyl)]-6-trifluoromethylpyridine], the pest or weed control at 200 ppm is less than 80%.
Take `Cc1cnc(N=S(C)(=O)C(C)c2ccc(C(F)(F)F)nc2)s1` (centres unmarked) [Compound 63, 5-{1-[methyl(5-methyl-1,3-thiazol-2-yl)sulfonimidoyl]ethyl}-2-(trifluoromethyl)pyridine]: the pest or weed control at 200 ppm was in the range of 80 to 100%.
The same measure, in the same setting: the value for `CC(c1ccc(C(F)(F)F)nc1)S(C)(=O)=Nc1nc(-c2ccc(Cl)c(Cl)c2)cs1` (centres unmarked) [Compound 20] was 80 to 100%.
On to `CCOC(C)(C)c1csc(N=S(C)(=O)C(C)c2ccc(C(F)(F)F)nc2)n1` (centres unmarked) [Compound 31], for which the pest or weed control at 200 ppm was in the range of 80 to 100%.

System in another data set: not given
Assay: not given
Settings: not given
Consider `CC(c1ccc(C(F)(F)F)nc1)S(C)(=O)=Nc1nc(-c2ccc(C(F)(F)F)cc2)cs1` (centres unmarked) [Compound 45], for which the melting point was 124 to 127 °C.
